By EC50 is commonly meant the concentration at which the effect is half-maximal.

In the test the test system is PK1 neuroblastoma cells exposed to TPrP. The test is described as follows: cells. The class given is cell-based. The following applies: Neuroblastoma cell, 96 h, read-out: TPrP EC50.
For `Cc1cc(-c2nc(Nc3ccc(S(C)(=O)=O)cc3)sc2COc2ccccc2)ccn1` [SR-35369, 4-(2-Methylpyridin-4-yl)-N-(4-(methylsulfonyl)phenyl)-5-(phenoxymethyl)thiazol-2-amine], the EC50 is above 500 nM.

Take `Cc1cc(-c2nc(Nc3ccc(S(C)(=O)=O)c(C(F)(F)F)c3)sc2CO)cc(C)n1` [SR-34989, (4-(2,6-Dimethylpyridin-4-yl)-2-((4-(methylsulfonyl)-3-(trifluoromethyl)phenyl)amino)thiazol-5-yl)methanol]: the EC50 was determined as 325 nM.

With `Cc1cc(-c2nc(Nc3ccc(S(C)(=O)=O)c(F)c3)sc2CO)ccn1` [SR-34978, (2-((3-Fluoro-4-(methylsulfonyl)phenyl)amino)-4-(2-methylpyridin-4-yl)thiazol-5-yl)methanol], the EC50 was 320 nM.

On to `COc1cc(-c2csc(Nc3ccc(S(C)(=O)=O)c(C(F)(F)F)c3)n2)cc(OC)n1` [SR-34986, 4-(2,6-Dimethoxypyridin-4-yl)-N-(4-(methylsulfonyl)-3-(trifluoromethyl)phenyl)thiazol-2-amine], for which the EC50 is above 500 nM.

Take `COc1cc(-c2csc(Nc3ccc(S(C)(=O)=O)c(F)c3)n2)cc(OC)n1` [SR-34976, 4-(2,6-Dimethoxypyridin-4-yl)-N-(3-fluoro-4-(methylsulfonyl)phenyl)thiazol-2-amine]: the EC50 is 320 nM.

Take `CCN(CC)S(=O)(=O)c1ccc(-c2nc(Nc3ccc(S(C)(=O)=O)cc3)sc2CO)cc1` [SR-34970, N,N-diethyl-4-(5-(hydroxymethyl)-2-((4-(methylsulfonyl)phenyl)amino)thiazol-4-yl)benzenesulfonamide]: the EC50 is above 500 nM.

In the case of `CCN(CC)S(=O)(=O)c1ccc(-c2csc(Nc3ccc(S(N)(=O)=O)cc3)n2)cc1` [SR-34768, N,N-diethyl-4-(2-((4-sulfamoylphenyl)amino)thiazol-4-yl)benzenesulfonamide], the EC50 came out at 150 nM.

Regarding `CS(=O)(=O)c1ccc(Nc2nc(-c3ccnc(Cl)c3)cs2)cc1F` [SR-34972, 4-(2-Chloropyridin-4-yl)-N-(3-fluoro-4-(methylsulfonyl)phenyl)thiazol-2-amine], the EC50 is 125 nM.

As for `Cc1cc(-c2nc(Nc3ccc(S(C)(=O)=O)c(Cl)c3)sc2CO)cc(C)n1` [SR-34995, (2-((3-Chloro-4-(methylsulfonyl)phenyl)amino)-4-(2,6-dimethylpyridin-4-yl)thiazol-5-yl)methanol], the EC50 was found to be 115 nM.

With `Cc1cc(-c2nc(Nc3ccc(S(C)(=O)=O)c(F)c3)sc2CO)cc(C)n1` [SR-34979, (4-(2,6-Dimethylpyridin-4-yl)-2-((3-fluoro-4-(methylsulfonyl)phenyl)amino)thiazol-5-yl)methanol], the EC50 came out at 360 nM.

On to `CS(=O)(=O)c1ccc(Nc2nc(-c3ccnc(Cl)c3)c(CO)s2)cc1C(F)(F)F` [SR-34987, (4-(2-Chloropyridin-4-yl)-2-((4-(methylsulfonyl)-3-(trifluoromethyl)phenyl)amino)thiazol-5-yl)methanol], for which the EC50 stood at 480 nM.

Regarding `CCN(c1ccc(S(C)(=O)=O)cc1)c1nc(-c2ccnc(C)c2)cs1` [SR-35368, N-ethyl-4-(2-methylpyridin-4-yl)-N-(4-(methylsulfonyl)phenyl)thiazol-2-amine], the EC50 amounted to 230 nM.

Turning to `CN(C)S(=O)(=O)c1ccc(-c2csc(Nc3ccc(S(C)(=O)=O)cc3)n2)cc1` [SR-34965, N,N-dimethyl-4-(2-((4-(methylsulfonyl)phenyl)amino)thiazol-4-yl)benzenesulfonamide], the EC50 was 100 nM.

As for `CN(C)S(=O)(=O)c1ccc(-c2nc(Nc3ccc(S(C)(=O)=O)cc3)sc2CO)cc1` [SR-34969, 4-(5-(Hydroxymethyl)-2-((4-(methylsulfonyl)phenyl)amino)thiazol-4-yl)-N,N-dimethylbenzenesulfonamide], the EC50 was 350 nM.

Consider `Cc1cc(-c2nc(Nc3ccc(S(C)(=O)=O)cc3)sc2CSc2ccccc2)ccn1` [SR-35371, 4-(2-Methylpyridin-4-yl)-N-(4-(methylsulfonyl)phenyl)-5-((phenylthio)methyl)thiazol-2-amine], for which the EC50 is above 500 nM.

Consider `Cc1cc(-c2nc(Nc3ccc(S(C)(=O)=O)cc3)sc2COc2ccc(F)cc2)ccn1` [SR-35370, 5-((4-Fluorophenoxy)methyl)-4-(2-methylpyridin-4-yl)-N-(4-(methylsulfonyl)phenyl)thiazol-2-amine], for which the EC50 is above 500 nM.

With `CC(C)NS(=O)(=O)c1ccc(-c2nc(Nc3ccc(S(C)(=O)=O)cc3)sc2CO)cc1` [SR-34971, 4-(5-(Hydroxymethyl)-2-((4-(methylsulfonyl)phenyl)amino)thiazol-4-yl)-N-isopropylbenzenesulfonamide], the EC50 was above 500 nM.

For the compound `COc1cc(-c2csc(Nc3ccc(S(C)(=O)=O)c(C(F)(F)F)c3)n2)ccn1` [SR-34985, 4-(2-Methoxypyridin-4-yl)-N-(4-(methylsulfonyl)-3-(trifluoromethyl)phenyl)thiazol-2-amine], the EC50 turned out to be 335 nM.

For `CNS(=O)(=O)c1ccc(-c2csc(Nc3ccc(S(N)(=O)=O)cc3)n2)cc1` [SR-34771, N-methyl-4-(2-((4-sulfamoylphenyl)amino)thiazol-4-yl)benzenesulfonamide], the EC50 was determined as 25 nM.

On to `CNS(=O)(=O)c1ccc(-c2csc(Nc3ccc(S(C)(=O)=O)c(C(F)(F)F)c3)n2)cc1` [SR-35734, N-methyl-4-(2-((4-(methylsulfonyl)-3-(trifluoromethyl)phenyl)amino)thiazol-4-yl)benzenesulfonamide], for which the EC50 amounted to 3 nM.

For the compound `COc1cc(-c2nc(Nc3ccc(S(C)(=O)=O)c(Cl)c3)sc2CO)ccn1` [SR-34996, (2-((3-Chloro-4-(methylsulfonyl)phenyl)amino)-4-(2-methoxypyridin-4-yl)thiazol-5-yl)methanol], the EC50 is 170 nM.

As to `NS(=O)(=O)c1ccc(Nc2nc(-c3ccc(S(=O)(=O)Nc4ccccc4)cc3)cs2)cc1` [SR-34767, N-Phenyl-4-(2-((4-sulfamoylphenyl)amino)thiazol-4-yl)benzenesulfonamide], the EC50 was above 500 nM.

Consider `Cc1cc(-c2csc(Nc3ccc(S(C)(=O)=O)c(F)c3)n2)ccn1` [SR-34973, N-(3-fluoro-4-(methylsulfonyl)phenyl)-4-(2-methylpyridin-4-yl)thiazol-2-amine], for which the EC50 is 70 nM.

Turning to `CNS(=O)(=O)c1ccc(-c2nc(Nc3ccc(S(N)(=O)=O)cc3)sc2CO)cc1` [SR-34777, 4-(5-(Hydroxymethyl)-2-((4-sulfamoylphenyl)amino)thiazol-4-yl)-N-methylbenzenesulfonamide], the EC50 was 70 nM.

As to `NS(=O)(=O)c1ccc(Nc2nc(-c3ccc(S(=O)(=O)N4CCOCC4)cc3)cs2)cc1` [SR-34765, 4-((4-(4-(Morpholinosulfonyl)phenyl)thiazol-2-yl)amino)benzenesulfonamide], the EC50 was determined as 70 nM.

As to `Cc1cc(-c2nc(Nc3ccc(S(C)(=O)=O)c(C(F)(F)F)c3)sc2CO)ccn1` [SR-34988, (4-(2-Methylpyridin-4-yl)-2-((4-(methylsulfonyl)-3-(trifluoromethyl)phenyl)amino)thiazol-5-yl)methanol], the EC50 came out at 335 nM.

For the compound `NS(=O)(=O)c1ccc(Nc2nc(-c3ccc(S(=O)(=O)N4CCCCC4)cc3)c(CO)s2)cc1` [SR-34772, 4-((5-(Hydroxymethyl)-4-(4-(piperidin-1-ylsulfonyl)phenyl)thiazol-2-yl)amino)benzenesulfonamide], the EC50 was determined as 400 nM.
